This is an account of results in patent US7550483B2, “Amorphous salt of 4-(3-chloro-4-(cyclopropylaminocarbonyl)aminophenoxy)-7-methoxy-6-quinolinecarboxamide and process for preparing the same” (Eisai R&D Management Co., Ltd., priority 2005, dated 2009).

A short description of data set [1]: Test for measuring dissolution rate (rotating disk method). Format: physicochemical. The note with it: 2nd fluid pH 6.8, 500 mL, 37° C., 50 rpm, 1 cm^2. Here is the method: The dissolution rates of the following crystal and amorphous compounds were measured under the conditions described below by the rotating disk method (see, J. H. Woods et al., J. Pharm. Soc., 54, 1068 (1955)): a crystalline form of the free carboxamide obtained in Preparation Example 1, an amorphous form of the methanesulfonate of the carboxamide obtained in Example 1 and an amorphous form of the ethanesulfonate obtained in Example 2. The dissolution rates were calculated based on a range in which linearity was maintained in the relation between concentration and time at the initial stage of dissolution.
(Rotating disk method conditions)
Solvent: “2nd fluid” (pH 6.8, 500 mL) as described in Japanese Pharmacopoeia 14th Edition, General Tests (disintegration test)
Disk rotation speed: 50 rpm
Area of powder contacting with solvent on disk: 1 cm^2
Sampling amount: approx. 1 mL
Column: YMC Pack ProC18 (YMC Co., Ltd.; inner diameter 4.6 mm, column length 150 mm, particle size 5 μm)
Column temperature: 40° C.
Concentration of solution B: 20%
Detection: ultraviolet absorbance photometer (wavelength: 252 nm)
Temperature of auto sampler: 25° C.

A further data set deals with angiogenesis. As to conditions: free-form product; WO02/32872 Example 368; cited from earlier work.
The target of another data set is c-Kit kinase (Homo sapiens, UniProt P10721). As to conditions: AACR 2004 proceedings; WO2004/080462; cited from earlier work.
Sequence of c-Kit kinase (P10721 26-976): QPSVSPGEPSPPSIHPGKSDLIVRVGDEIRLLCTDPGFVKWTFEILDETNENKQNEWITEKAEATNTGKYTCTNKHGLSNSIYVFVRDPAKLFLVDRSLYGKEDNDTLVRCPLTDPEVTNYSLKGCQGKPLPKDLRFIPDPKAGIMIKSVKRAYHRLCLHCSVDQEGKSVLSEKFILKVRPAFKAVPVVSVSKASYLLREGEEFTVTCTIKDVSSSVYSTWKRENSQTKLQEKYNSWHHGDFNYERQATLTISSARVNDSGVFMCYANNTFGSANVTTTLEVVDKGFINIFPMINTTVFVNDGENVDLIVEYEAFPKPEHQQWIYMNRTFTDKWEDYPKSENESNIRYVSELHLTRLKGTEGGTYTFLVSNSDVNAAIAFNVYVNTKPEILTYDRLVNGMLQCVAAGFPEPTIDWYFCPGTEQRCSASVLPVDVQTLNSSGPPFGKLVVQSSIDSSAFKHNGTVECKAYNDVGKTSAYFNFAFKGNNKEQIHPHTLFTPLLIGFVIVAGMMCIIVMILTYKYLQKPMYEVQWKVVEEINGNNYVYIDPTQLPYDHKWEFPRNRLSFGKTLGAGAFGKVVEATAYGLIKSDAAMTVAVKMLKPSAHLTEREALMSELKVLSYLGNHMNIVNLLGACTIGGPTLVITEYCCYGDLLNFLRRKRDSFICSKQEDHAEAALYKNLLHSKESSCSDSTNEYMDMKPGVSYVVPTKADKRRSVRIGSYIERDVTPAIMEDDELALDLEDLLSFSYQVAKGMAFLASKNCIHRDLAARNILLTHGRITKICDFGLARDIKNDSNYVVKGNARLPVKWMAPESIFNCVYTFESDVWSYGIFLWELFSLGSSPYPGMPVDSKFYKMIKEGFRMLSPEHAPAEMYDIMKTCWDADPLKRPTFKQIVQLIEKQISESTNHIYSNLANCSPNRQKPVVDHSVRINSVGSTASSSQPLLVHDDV

Structures are written as SMILES.

`CCS(=O)(=O)O.COc1cc2nccc(Oc3ccc(NC(=O)NC4CC4)c(Cl)c3)c2cc1C(N)=O` [esylate amorphous, An amorphous form of the ethanesulfonate of 4-(3-chloro-4-(cyclopropylaminocarbonyl)aminophenoxy)-7-methoxy-6-quinolinecarboxamide]: the dissolution rate in data set [1] came out at 25.1 μg/min/cm^2.

With `COc1cc2nccc(Oc3ccc(NC(=O)NC4CC4)c(Cl)c3)c2cc1C(N)=O` [free form, 4-(3-chloro-4-(cyclopropylaminocarbonyl)aminophenoxy)-7-methoxy-6-quinolinecarboxamide], the dissolution rate in data set [1] was 1.1 μg/min/cm^2. For the same molecule, the angiogenesis inhibition entry with angiogenesis is on record as “excellent angiogenesis inhibition”. The “inhibitory action for c-Kit kinase” value on c-Kit kinase is “strong inhibitory action”.

`COc1cc2nccc(Oc3ccc(NC(=O)NC4CC4)c(Cl)c3)c2cc1C(N)=O.CS(=O)(=O)O` [mesylate amorphous, An amorphous form of the methanesulfonate of 4-(3-chloro-4-(cyclopropylaminocarbonyl)aminophenoxy)-7-methoxy-6-quinolinecarboxamide] returned a dissolution rate in data set [1] of 22.7 μg/min/cm^2.
